The target in experiment [1] is T1, human recombinant monoacylglycerol lipase (hMAGL) (Homo sapiens, UniProt Q99685).
T1 construct: gene MGLL
T1 sequence (Q99685 1-303): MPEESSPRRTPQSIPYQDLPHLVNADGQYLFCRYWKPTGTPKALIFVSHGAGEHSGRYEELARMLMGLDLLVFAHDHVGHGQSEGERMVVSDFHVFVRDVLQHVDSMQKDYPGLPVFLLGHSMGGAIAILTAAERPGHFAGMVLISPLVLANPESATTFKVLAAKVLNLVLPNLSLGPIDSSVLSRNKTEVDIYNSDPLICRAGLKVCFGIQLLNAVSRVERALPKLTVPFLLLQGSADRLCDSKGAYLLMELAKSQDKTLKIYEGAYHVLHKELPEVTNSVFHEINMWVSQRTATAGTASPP
In words: fluorometric 7-HRO hydrolysis assay, residual activity at […]. It counts as biochemical.

Experiment [2] has as its target T1, human recombinant monoacylglycerol lipase (hMAGL). Put plainly: fluorometric 7-HRO hydrolysis assay with recombinant hMAGL; dilution reversibility and Lineweaver-Burk kinetics. It counts as biochemical.

On to `Oc1ccc(-c2nc(-c3ccccc3)c(-c3ccccc3)[nH]2)cc1` [compound 1, 2-(4-Hydroxyphenyl)-4,5-Diphenylimidazole], for which the “fluorometric 7-HRO hydrolysis assay, residual activity at 50 nM-100 μM” value in experiment [1] was “all tested compounds interact with MAGL, leading to a concentration-dependent reduction in enzyme activity”.

Turning to `CCCC(=O)Oc1ccc(-c2nc(-c3ccccc3)c(-c3ccccc3)[nH]2)cc1` [compound 2, Butyric Acid Ester of 2-(4-Hydroxyphenyl)-4,5-Diphenylimidazole], the “fluorometric 7-HRO hydrolysis assay, residual activity at 50 nM-100 μM” value in experiment [1] is “all tested compounds interact with MAGL, leading to a concentration-dependent reduction in enzyme activity”.

In general, IC50 refers to the point on the concentration scale where inhibition reaches its midpoint. In the case of `CCCCCCCC(=O)Oc1ccc(-c2nc(-c3ccccc3)c(-c3ccccc3)[nH]2)cc1` [compound 3, Octanoic Acid Ester of 2-(4-Hydroxyphenyl)-4,5-Diphenylimidazole], in experiment [2], the 50% inhibitory concentration (IC50) stood at 21 µM.

`CCCCCCCCCCCCCCCC(=O)Oc1ccc(-c2nc(-c3ccccc3)c(-c3ccccc3)[nH]2)cc1` [compound 4, Palmitic Acid Ester of 2-(4-Hydroxyphenyl)-4,5-Diphenylimidazole]: in experiment [2], the IC50 was 6.5 µM.

The values above are taken from paper PMC11990452, “Discovery of MAGL Inhibition by Lophine Derivatives: An Unexpected Finding from Chemiluminescent Assay Development” (Molecules, 2025).
